Measured values from patent US7879885B2, “Thioalkeneamides as transketolase inhibitors” (Array Biopharma, Inc., priority 2004, dated 2011).

Target: T1, HCT116 TK (cellular transketolase, colon carcinoma HCT116) (Homo sapiens, UniProt P29401)
T1 construct: endogenous in cells; host or cells: HCT116 colon carcinoma cells
T1 sequence (P29401 1-623): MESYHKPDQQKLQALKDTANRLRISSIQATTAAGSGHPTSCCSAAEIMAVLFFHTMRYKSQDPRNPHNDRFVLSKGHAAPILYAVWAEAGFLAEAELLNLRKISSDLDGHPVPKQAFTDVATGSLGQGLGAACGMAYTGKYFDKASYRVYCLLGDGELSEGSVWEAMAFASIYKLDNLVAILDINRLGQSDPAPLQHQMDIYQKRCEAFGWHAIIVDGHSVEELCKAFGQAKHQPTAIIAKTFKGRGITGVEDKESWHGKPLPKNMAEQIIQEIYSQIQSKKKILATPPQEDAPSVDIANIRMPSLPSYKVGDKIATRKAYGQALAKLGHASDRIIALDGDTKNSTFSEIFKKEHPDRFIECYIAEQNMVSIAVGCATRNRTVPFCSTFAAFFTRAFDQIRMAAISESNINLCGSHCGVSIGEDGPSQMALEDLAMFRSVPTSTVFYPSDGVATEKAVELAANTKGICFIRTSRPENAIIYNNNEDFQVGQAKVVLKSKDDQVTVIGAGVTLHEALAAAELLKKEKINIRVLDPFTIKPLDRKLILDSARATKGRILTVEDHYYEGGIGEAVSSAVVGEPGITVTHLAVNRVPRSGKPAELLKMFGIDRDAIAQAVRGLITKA
Assay: Cellular assay: transketolase activity in lysates of treated HCT116 cells
Type: cell-based
Conditions: colon carcinoma HCT116, thiamine-free DMEM, 48 hours treatment, mean
Procedure: Log-phase cells were trypsinized, washed and resuspended in thiamine-free DMEM. Optimization of the initial cell counts was carried out for each cell line prior to IC50 measurements. […] Using this initial cell count, IC50 could be monitored for six days.
Media containing 8,000 cells (95 μl) were used to seed individual wells in a 96-well clear-bottom cell cultured-treated sterile plate. Inhibitor compounds were dissolved in 100% DMSO as 10 mM solutions. Serial dilutions were then made in 100% DMSO to make up a 100× stock, then diluted to 20× in double-deionized H2O (ddH2O). Twenty-four hours after seeding, 5 μl of 20× inhibitor compound stock solution was added to the cells so that the final concentration of DMSO was 1%. Media were changed after 24 hours. Forty-eight hours after inhibitor compound treatment, the plates were inverted to remove media and blotted on a paper towel. The plates were then either subjected to enzymatic reactions immediately or were frozen at −20° C. for future assays.
Lysis buffer (20 mM HEPES, pH 7.5, 1 mM EDTA, 0.2 g/l Triton X-100® and 0.2 g/L sodium deoxycholate, supplemented with 1 mM DTT and 1 mM PMSF just before use, 80 μl) were added to each well of the assay plate and allow cell lysis at RT with shaking. Then 15 ul of 5× assay buffer containing final concentrations of 50 mM HEPES, 40 mM KCl, 2.5 mM MgCl2, 5 mM NaArsenate, 1 mM NAD, 2 unit/ml glyceraldehyde-3-phosphate dehydrogenase (GAPDH) was added to the 80 ul of lysate. Reaction kinetics were monitored on a fluorescent plate reader to allow any possible background activity via GAPDH to burn out. Then 5 ul of substrate mix containing final concentrations of 0.5 mM ribose-5-phosphate and 0.5 mM xylulose-5-phosphate was added to initiate the reaction. Monitor reaction kinetics were monitored using a fluorescent plate reader and the slope of the initial linear range was recorded as the velocity of the reaction (FU/min). Enzymatic inhibition was expressed as percent of control wells that were not treated with compounds. The values (y) were plotted as function of the log concentration (x) and fitted to a sigmoidal dose-response curve with variable slopes that bears the equation: y=bottom+(top−bottom)/(1+10^((log EC50-x)*hillslope)).

| IC50 | SMILES |
| --- | --- |
| 25 nM | CCCSS/C(CCO)=C(/C)N(C=O)Cc1ccc(C)nc1N |
| 253 nM | CCC(C)SS/C(CCO)=C(/C)N(C=O)Cc1ccc(C)nc1N (stereo not drawn) |
| 24 nM | C/C(=C(\CCO)SSCC1CCCO1)N(C=O)Cc1ccc(C)nc1N (stereo not drawn) |
| 13 nM | C/C(=C(\CCO)SSCCO)N(C=O)Cc1ccc(C)nc1N |
| 52 nM | C/C(=C(\CCO)SSCCC(=O)O)N(C=O)Cc1ccc(C)nc1N |
| 198 nM | C/C(=C(\CCO)SSCCN1CCCC1)N(C=O)Cc1ccc(C)nc1N |
| 70 nM | C/C(=C(\CCO)SSCCN1CCOCC1)N(C=O)Cc1ccc(C)nc1N |
| 7730 nM | CCCSS/C(CCO)=C(/C)N(C=O)Cc1ccc(Cl)nc1N |
| 102000 nM | Cc1ccc(CN(C=O)/C=C(/CCO)SS/C(=C\N(C=O)Cc2ccc(C)nc2N)CCO)c(N)n1 |
| 479 nM | C/C(=C(\CCO)SS/C(CCO)=C(/C)N(C=O)Cc1cccnc1N)N(C=O)Cc1cccnc1N |
| 10 nM | C/C(=C(\CCO)SS/C(CCO)=C(/C)N(C=O)Cc1ccc(C)nc1N)N(C=O)Cc1ccc(C)nc1N |
| 32 nM | CC(=O)N(Cc1ccc(C)nc1N)/C(C)=C(/CCO)SS/C(CCO)=C(/C)N(Cc1ccc(C)nc1N)C(C)=O |
| 8 nM | CC(=O)OCC/C(SS/C(CCOC(C)=O)=C(/C)N(C=O)Cc1ccc(C)nc1N)=C(\C)N(C=O)Cc1ccc(C)nc1N |
| 5.27 nM | C/C(=C(\CCO)SS/C(CCO)=C(/C)N(C=O)Cc1ccc(Cl)nc1N)N(C=O)Cc1ccc(Cl)nc1N |
| 6460 nM | CCCCS/C(CCO)=C(/C)N(C=O)Cc1ccc(C)nc1N |
| 3700 nM | C/C(=C(\CCO)SCCN1CCCCC1)N(C=O)Cc1ccc(C)nc1N |
| 1870 nM | C/C(=C(\CCO)SCCS(=O)(=O)c1ccccc1)N(C=O)Cc1ccc(C)nc1N |
| 116 nM | C/C(=C(\CCO)SCOC(=O)C(C)(C)C)N(C=O)Cc1ccc(C)nc1N |
| 25 nM | CC(=O)OCC/C(SCOC(=O)C(C)(C)C)=C(\C)N(C=O)Cc1ccc(C)nc1N |
| 50 nM | CNC(=O)OCS/C(CCO)=C(/C)N(C=O)Cc1ccc(C)nc1N |
| 507 nM | C/C(=C(\CCO)SCOC(=O)N(C)C)N(C=O)Cc1ccc(C)nc1N |
| 26300 nM | CC(=O)OCC/C(SCOC(=O)N(C)C)=C(\C)N(C=O)Cc1ccc(C)nc1N |
| 19400 nM | CC(=O)Nc1nc(C)ccc1CN(C=O)/C(C)=C(/CCOC(C)=O)SCOC(=O)N(C)C |
| 2480 nM | CC(=O)Nc1nc(C)ccc1CN(C=O)/C(C)=C(/CCOC(C)=O)SCOC(=O)C(C)(C)C |
| 50 nM | CC(=O)OCC/C(SC(C)=O)=C(\C)N(C=O)Cc1ccc(C)nc1N |
| 108 nM | CC(=O)OCC/C(SC(=O)c1ccccc1)=C(\C)N(C=O)Cc1ccc(C)nc1N |
| 28 nM | C/C(=C(\CCOC(=O)c1ccccc1)SC(=O)c1ccccc1)N(C=O)Cc1ccc(C)nc1N |
| 15 nM | C/C(=C1\CCOC(=O)S1)N(C=O)Cc1ccc(C)nc1N |

| SMILES | IC50 |
| --- | --- |
| CCCSS/C(CCOP(=O)(OCC)OCC)=C(/C)N(C=O)Cc1ccc(C)nc1N | 1040 nM |
| CCOP(=O)(OCC)OCC/C(SC(=O)c1ccccc1)=C(\C)N(C=O)Cc1ccc(C)nc1N | 7160 nM |
